According to PubChem BioAssay AID652053 (Broad Institute, 2013):

Each compound was assayed on Huh7 psiCHECK-miR122 Renilla luciferase reporter, 48 h (assay: miR-122 inhibitors in Huh7 reporter cells, dose response, cell-based, Huh7 psiCHECK-miR122, Renilla luciferase, cherry-pick (AID 652053)).
Compound CN1c2ccc(-c3ccccc3F)cc2[C@H]2[C@H](CCN2S(=O)(=O)c2ccccc2F)[C@H]1CO has an AC40 of 2.4 µM.
C[C@@H]1CN([C@H](C)CO)C(=O)c2cc(NC(=O)Nc3ccccc3)ccc2O[C@@H]1CN(C)S(=O)(=O)c1ccc(Cl)cc1 gave an AC40 of 5.33 µM.
In the case of COc1ccc(S(=O)(=O)NCCSC(C)(C)C)c(Cl)c1Cl, the AC40 is reported as 8.16 µM.
In the case of S=C(NCc1ccncc1)Nc1cc(Cl)cc(Cl)c1, the AC40 is reported as 5.2 µM.
With COc1ccc(S(=O)(=O)NCc2ccccc2)cc1 the AC40 was 2.53 µM.
Work on Cc1ccc(NS(=O)(=O)c2ccc3c(c2)NC(=O)CO3)cc1C yielded an AC40 of 6.29 µM.
Work on COc1ccc(NS(=O)(=O)c2ccc(N3CCOCC3)c(NC(=O)c3cccc(F)c3)c2)cc1 yielded an AC40 of 8.96 µM.
Work on CC1CCCN(C(=O)Cn2nnc(-c3cccnc3)n2)C1 (stereo unspecified) yielded an AC40 of 14.4 µM.
O=C(NCCCn1ccnc1)c1cccc(S(=O)(=O)Nc2ccc(F)cc2)c1 gave an AC40 of 3.77 µM.
In the case of O=C(c1cccc(F)c1)N1C[C@H]2[C@@H](c3ccccc31)[C@@H](CO)N2C(=O)c1ccc(F)cc1, the AC40 is reported as 1.08 µM.
With Cc1ccc(S(=O)(=O)N/N=C/c2ccc(OCC(=O)Nc3ccccc3Cl)cc2)cc1 the AC40 was 5.89 µM.
Work on CC(=Nc1ccccc1)C1=C(O)C(Cc2cccc(F)c2)NC1=O (stereo unspecified) yielded an AC40 of 3.86 µM.
NC(=O)Cn1cc(/C=N\NS(=O)(=O)c2ccc(F)cc2)c2ccccc21 gave an AC40 of 3.22 µM.
Work on COc1ccc(NS(=O)(=O)c2cc(NC(=O)c3sccc3C)ccc2N2CCOCC2)cc1 yielded an AC40 of less than 0.26 µM.
CCOc1ccccc1N1CCN(C(=O)c2cccc(-c3ccc(O)cc3)c2)CC1 gave an AC40 of 0.659 µM.
Compound Cc1ccc(S(=O)(=O)Nc2ccc3c4c(cccc24)CC3)c(C)c1 has an AC40 of 6.8 µM.
Cc1cc(C)c(C)c(S(=O)(=O)Nc2ccc(O)cc2)c1C showed an AC40 of 6.69 µM.
Cc1ccc(S(=O)(=O)Nc2cccc(-c3ccc4nncn4n3)c2)cc1 gave an AC40 of 9.35 µM.
With Cc1ccccc1C(=O)Oc1ccc(Br)cc1C(=S)N1CCCC1 the AC40 was 13.3 µM.
Cc1cc(C)cc(Cn2c3ccc(NC(=S)NCc4ccccc4F)cc3c(=O)n2C)c1 gave an AC40 of 4.19 µM.
Work on COc1ccc(OC)c(S(=O)(=O)NCc2ccccc2)c1 yielded an AC40 of 0.781 µM.
Compound COc1ccc(NC(=O)C2CCC2)cc1S(=O)(=O)Nc1cc(C)ccc1Br has an AC40 of 0.985 µM.
With COc1ccc(C(=O)N2C[C@H]3[C@@H](c4ccccc42)[C@@H](CO)N3C(=O)c2ccc(F)cc2)cc1 the AC40 was 0.631 µM.
Cc1cccc(NS(=O)(=O)c2cc3c(cc2C)NC(=O)CO3)c1 gave an AC40 of 2.36 µM.
CCCC#Cc1cnc2c(c1)C(=O)N([C@H](C)CO)C[C@H](C)[C@H](CN(C)Cc1ccccc1F)O2 showed an AC40 of 13.1 µM.
Cc1ccc(NS(=O)(=O)c2cccc3nsnc23)cc1C gave an AC40 of 4.13 µM.
For O=S(Cc1ccc(Cl)cc1)CC(O)(c1ccccc1)c1ccccc1 (stereo unspecified), the AC40 was 18.1 µM.
With COC(=O)c1c(C)oc(C)c1S(=O)(=O)NCC1CC1 the AC40 was 3.29 µM.
Compound Fc1cccc(NC(=S)NC2CCCCCCC2)c1 has an AC40 of 4.22 µM.
CC(=O)Nc1ccc(C(=O)Nc2ccc(S(=O)(=O)NCC3CCCO3)cc2)cc1 (stereo unspecified) showed an AC40 of 2.69 µM.
For Cc1cc(C(=O)Nc2cccc3c2O[C@@H](CN(C)Cc2ccc(C(F)(F)F)cc2)[C@H](C)CN([C@H](C)CO)C3=O)n(C)n1, the AC40 was 3.62 µM.
Work on C[C@@H]1CN([C@H](C)CO)C(=O)Cc2cc(NC(=O)Nc3ccc4c(c3)OCO4)ccc2O[C@@H]1CN(C)C(=O)Nc1cccc2ccccc12 yielded an AC40 of 0.579 µM.
In the case of O=S(=O)(Nc1cccc(-c2cn3ccsc3n2)c1)c1ccc(F)cc1, the AC40 is reported as 6.48 µM.
C[C@@H]1CN([C@@H](C)CO)C(=O)c2cc(NC(=O)Nc3ccccc3)ccc2O[C@@H]1CN(C)Cc1ccc(C(=O)Nc2ccccc2N)cc1 showed an AC40 of 13.4 µM.
Work on O=S(=O)(Nc1ccc(C(O)(C(F)(F)F)C(F)(F)F)cc1)c1cccc2cccnc12 yielded an AC40 of 9.64 µM.
Work on COc1ccccc1NS(=O)(=O)c1cc(C(=O)NCc2ccco2)ccc1C yielded an AC40 of 13.5 µM.
Work on CCOc1ccc(NS(=O)(=O)c2cc(NC(=O)C3CC3)ccc2C)cc1Br yielded an AC40 of 2.15 µM.
Work on Cc1ccc(-c2ccc3c(c2)O[C@H](CN(C)Cc2ccc(F)cc2)[C@@H](C)CN([C@H](C)CO)S3(=O)=O)cc1 yielded an AC40 of 5.46 µM.
Work on CCc1cccc2c(C(=O)CN3C(=O)NC4(CCCCC4)C3=O)c[nH]c12 yielded an AC40 of 6.01 µM.
For O=C(CCc1ccc(S(=O)(=O)NC2CCCCC2)cc1)NCc1ccccc1, the AC40 was 4.38 µM.
O=S(Cc1ccccc1)CC(O)(c1ccc(Cl)cc1)c1ccc(Cl)cc1 (stereo unspecified) gave an AC40 of 10.5 µM.
C[C@H](CO)N1C[C@H](C)[C@@H](CN(C)Cc2ccc(C(F)(F)F)cc2)Oc2c(NC(=O)c3cnccn3)cccc2C1=O showed an AC40 of 1.43 µM.
CCN(CC)S(=O)(=O)c1ccc(NS(=O)(=O)c2ccc(C)c(C)c2)cc1 gave an AC40 of 11.3 µM.
O=C(Nc1ccc(S(=O)(=O)Nc2nccs2)cc1)c1cc(-c2ccccc2Cl)nc2ccccc12 showed an AC40 of 2.48 µM.
Compound O=S(=O)(NCc1cccnc1)c1ccc(Cl)c2ccccc12 has an AC40 of 4.69 µM.
Compound COc1ccc(N2CCN(C(=O)c3csc4ccccc34)CC2)cc1 has an AC40 of 15.9 µM.
Cc1ccc(C)c(S(=O)(=O)Nc2ccc(C(=O)N3CCOCC3)cc2)c1 was tested, and the AC40 was 7.88 µM.
In the case of O=C(c1ccc(F)cc1)N1C[C@H]2[C@@H](c3ccccc31)[C@@H](CO)N2Cc1ccc2c(c1)OCO2, the AC40 is reported as 17.3 µM.
In the case of COc1ccccc1NS(=O)(=O)c1cc(NC(=O)Nc2ccccc2)ccc1N1CCCCC1, the AC40 is reported as 1.37 µM.
Cc1ccc(C2CN(C)C3(C(=O)Nc4ccccc43)C23COc2ccccc2C3=O)cc1 (stereo unspecified) was tested, and the AC40 was 1.08 µM.
For COc1ccccc1C(=O)Nc1ccc2c(c1)C(=O)N(C)[C@H]1CC[C@@H](CC(=O)NCc3ccc(Cl)c(Cl)c3)O[C@H]1CO2, the AC40 was 0.359 µM.
